Results reported in PubChem BioAssay (NCI).
Values joined by “and” are separate entries in the source; they are usually repeats but may differ in a detail not shown here. Equal entries are not always repeated.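 Cultured in 96-well plates, cells were exposed to test compound for 48 hours across five concentrations. At the GI50, growth is halved. TGI denotes the concentration required for complete inhibition of growth.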

Tests used:
Assay in all cases: growth of human tumour cells (NCI), 48 h
M14 melanoma = test system: M14 melanoma
LOX IMVI melanoma = test system: LOX IMVI melanoma
HOP-62 NSCLC = test system: HOP-62 NSCLC
NCI/ADR-RES ovarian = test system: NCI/ADR-RES ovarian
HCT-15 colon = test system: HCT-15 colon
MDA-MB-231 breast = test system: MDA-MB-231 breast
EKVX NSCLC = test system: EKVX NSCLC
COLO 205 colon = test system: COLO 205 colon
SK-MEL-2 melanoma = test system: SK-MEL-2 melanoma
RPMI-8226 leukemia = test system: RPMI-8226 leukemia

SMILES | TGI (M14 melanoma) | TGI (LOX IMVI melanoma) [µM] | TGI (HOP-62 NSCLC) [µM] | TGI (NCI/ADR-RES ovarian) | TGI (HCT-15 colon) [µM] | TGI (MDA-MB-231 breast) [µM] | TGI (EKVX NSCLC) | TGI (COLO 205 colon) [µM] | TGI (SK-MEL-2 melanoma) [µM] | TGI (RPMI-8226 leukemia) [µM] | GI50 (M14 melanoma) | GI50 (LOX IMVI melanoma) [µM] | GI50 (HOP-62 NSCLC) [µM] | GI50 (NCI/ADR-RES ovarian) [µM] | GI50 (HCT-15 colon) [µM] | GI50 (MDA-MB-231 breast) [µM] | GI50 (EKVX NSCLC) [µM] | GI50 (COLO 205 colon) [µM] | GI50 (SK-MEL-2 melanoma) [µM] | GI50 (RPMI-8226 leukemia) [µM]
Cn1nnnc1N/N=C/c1ccccc1 | > 10 µM | > 10 | > 10 | > 10 µM | > 10 | > 10 | > 10 µM | > 10 | > 10 | > 10 | – | – | – | – | – | – | – | – | – | –
CC(=O)c1c(C)n(C)c2c1nnc1ccccc12 | > 100 µM | > 100 | > 100 | > 100 µM | > 100 | > 100 | 50.3 µM | > 100 | > 100 | > 100 | – | – | – | – | – | – | – | – | – | –
O=C(Nc1ccc(Cl)cc1F)c1cc(I)ccc1O | 5.57 µM | 6.79 | 8.04 | 8.68 µM | 10.2 | 7.49 | 8.8 µM | 17.5 | 4.25 | 5.01 | 0.711 µM | 1.42 | 2.35 | 2.02 | 2.41 | 1.67 | 1.62 | 4.52 | 0.836 | 0.737
C=C(C)C1CC2(C)C(C)CC(OC(=O)/C(C)=C\C)CC2C(OC(=O)/C(C)=C\C)C1O (configuration not stated) | > 100 µM | > 100 | – | > 100 µM | > 100 | > 100 | > 100 µM | 48.4 | > 100 | – | – | – | – | – | – | – | – | – | – | –
COc1cnc2c(c1)C(=O)c1c-2n(CCCN2CCC(O)CC2)c(=O)c2cc(F)ccc12 | 1.63 µM | 0.295 | 0.645 | 1.98 µM | – | 2.1 | 1.62 µM | – | 2.86 | 0.63 | 0.254 µM | 0.127 | 0.142 | 0.303 | – | 0.485 | 0.271 | – | 0.61 | 0.109
O=C(Nc1cccc(Oc2nnc(Cl)c3ccccc23)c1)Nc1ccc(Cl)c(C(F)(F)F)c1 | 3.16 µM | 2.82 | 5.75 | 9.95 µM | 3.53 | 2.44 | 6.49 µM | 3.9 | 3.24 | 1.51 | 0.707 µM | 0.68 | 1.98 | 0.926 | 0.765 | 0.358 | 0.646 | 0.97 | 0.698 | 0.336
COC1CCC(O)C(/C=C/[N+](=O)[O-])C1 (configuration not stated) | 10.7 µM | 3.05 | 19.1 | 75.1 µM | 4.69 | 18.1 | 15.1 µM | 5.7 | 23.1 | 4.2 | – | – | – | – | – | – | – | – | – | –
O=C(CSC(c1ccccc1)c1ccccc1)N/N=C/c1cccc(Cl)c1 | 29 µM | 33.3 | 31.6 | 31.8 µM | 38.6 | 28.6 | 35.9 µM | – | 30.1 | 41.7 | 15.3 µM | 17.9 | 17.3 | 14.3 | 19.6 | 14.4 | 16.3 | – | 15.7 | 19
Oc1c(CN2CCCC2)cc(COCc2ccc(Br)cc2)c2cccnc12 | 1.77 µM | 1.54 | 2.3 | 1.13 µM | 1.72 | 2.37 | 11.8 µM | 18.7 | 3.97 | 4.02 | 0.36 µM | 0.37 | 0.362 | 0.0707 | 0.0475 | 0.851 | 0.723 | 4.62 | 1.47 | 1.12
C=CC(C=O)C1(O)CCOC(=O)/C1=C\N (configuration not stated) | > 100 µM | > 100 | > 100 | > 100 µM | > 100 | > 100 | > 100 µM | > 100 | > 100 | > 100 | > 100 µM | > 100 | > 100 | > 100 | > 100 | > 100 | > 100 | > 100 | > 100 | > 100
O=S(=O)(O)c1ccc(-c2nnc(-c3ccccn3)nc2-c2ccc(S(=O)(=O)O)o2)o1 | > 100 µM | > 100 | > 100 | > 100 µM | > 100 | > 100 | > 100 µM | > 100 | > 100 | > 100 | – | – | – | – | – | – | – | – | – | –
CNC(=O)c1ccc2cc(C3(O)CCn4cncc43)ccc2c1 (configuration not stated) | > 100 µM | > 100 | > 100 | > 100 µM | > 100 | > 100 | > 100 µM | > 100 | > 100 | > 100 | > 100 µM | > 100 | > 100 | > 100 | > 100 | > 100 | > 100 | > 100 | > 100 | > 100
Cc1ccc(C)c(NC(=O)NCc2ccc(Cl)cc2)c1 | > 100 µM | > 100 | 37 | > 100 µM | > 100 | > 92 | > 100 µM | > 100 | > 100 | > 100 | – | – | – | – | – | – | – | – | – | –
CCN1C(=O)NC(=O)C(C)(N2C(=O)c3c(F)c(F)c(F)c(F)c3C2=O)C1=O (configuration not stated) | 10.7 µM | 4 | 18.3 | 18.2 µM | 11.1 | 9.13 | 18 µM | 4.47 | 21.6 | 6.53 | 3.16 µM | 1.87 | 5.97 | 3.6 | 2.86 | 2.66 | 5.76 | 2.13 | 3.84 | 1.65
Cc1cnc(/C=N\NC(N)=S)c2cccc(N)c12 | 4.41 µM and 1.75 µM | > 100 | > 100 | > 100 µM and 17.8 µM | > 100 | > 100 | > 100 µM and 53.6 µM | > 100 | > 100 | > 100 | 1.83 µM and 0.384 µM | 2.32 | 2.89 | 3.53 | 3.59 | 3.2 | 3.15 | 3.23 | > 29.2 | 2.1
